The nature of data set [1]: Elimination half life in C57BL/6J hemophilia B mouse model liver at 28 mg/kg, sc for 2 days. The data set is classed as ADME, organism-based. Further details: dose 28 mg/kg, route subcutaneous.
In data set [2] the test system is Mus musculus. The experiment in a line: Increase in human F9 nonsense R338X mutant antigen coagulant activity in C57B/6J mouse plasma at 42 mg/kg, sc administered daily for 2 days after 9 hrs. The data set is classed as functional. As to conditions: route subcutaneous.
For data set [3], the system named is Mus musculus. Nature of the data set: Increase in human F9 nonsense R338X mutant antigen coagulant activity in C57B/6J mouse plasma at 28 mg/kg, sc administered daily for 2 days after 9 hrs. The data set is classed as functional. As to conditions: route subcutaneous.
In data set [4] the test system is Mus musculus. Nature of the data set: Increase in human F9 nonsense R338X mutant antigen coagulant activity in C57B/6J mouse plasma at 28 mg/kg, sc administered daily for 7 days after 3 hrs by ELISA. As to conditions: route subcutaneous.
Data set [5] can be described thus: Toxicity in C57BL/6J hemophilia B mouse model at 28 mg/kg, sc. Type of data set: organism-based. Further details: dose 28 mg/kg, route subcutaneous. The note with it: in vivo.
For data set [6], the system named is Mus musculus. Nature of the data set: Increase in human F9 nonsense R338X mutant antigen coagulant activity in C57B/6J mouse plasma at 14 mg/kg, sc administered daily for 2 days after 2 hrs. The data set is classed as functional. The note with it: route subcutaneous.
Data set [7] relates to Mus musculus. The experiment in a line: Increase in human F9 nonsense R338X mutant antigen level per 100 ul of plasma in C57B/6J mouse model at 42 mg/kg, sc administered daily for 2 days after 9 hrs by ELISA. The data set is classed as functional. As to conditions: route subcutaneous. Background: In an ELISA, binding on a coated surface is turned into a signal by an enzyme label.

Data set [8] deals with Mus musculus. The experiment in a line: Increase in human F9 nonsense R338X mutant antigen level per 100 ul of plasma in C57B/6J mouse model at 14 mg/kg, sc administered daily for 2 days after 2 hrs by ELISA. The data set is classed as functional. The note with it: route subcutaneous.
The subject of data set [9] is Mus musculus. Nature of the data set: Increase in human F9 nonsense R338X mutant antigen level per 100 ul of plasma in C57B/6J mouse model at 28 mg/kg, sc administered daily for 2 days after 2 hrs by ELISA. Type of data set: functional. The note with it: route subcutaneous.
In data set [10] the test system is Mus musculus. Nature of the data set: Increase in human F9 nonsense R338X mutant antigen coagulant activity in C57B/6J mouse plasma at 28 mg/kg, sc administered daily for 7 days after 9 hrs by ELISA. As to conditions: route subcutaneous. Type of data set: functional.
Data set [11] relates to Mus musculus. The experiment in a line: Increase in human F9 nonsense R338X mutant antigen coagulant activity in C57B/6J mouse plasma at 7 mg/kg, sc administered daily for 2 days after 2 hrs. Type of data set: functional. The note with it: route subcutaneous.
Data set [12] deals with Mus musculus. The experiment in a line: Increase in human F9 nonsense R338X mutant antigen level per 100 ul of plasma in C57B/6J mouse model at 7 mg/kg, sc administered daily for 2 days after 2 hrs by ELISA. The data set is classed as functional. As to conditions: route subcutaneous.
A short description of data set [13]: Half life in C57BL/6J hemophilia B mouse model at 28 mg/kg, sc for 2 days. Also on record: dose 28 mg/kg, route subcutaneous. The note with it: in vivo. The data set is classed as ADME, organism-based.
Data set [14] relates to Mus musculus. Nature of the data set: Increase in human F9 nonsense R338X mutant antigen level per 100 ul of plasma in C57B/6J mouse model at 28 mg/kg, sc administered daily for 2 days after 9 hrs by ELISA. The note with it: route subcutaneous. The data set is classed as functional.
For data set [15], the system named is Mus musculus. The experiment in a line: Increase in human F9 nonsense R338X mutant antigen coagulant activity in C57B/6J mouse plasma at 28 mg/kg, sc administered daily for 7 days after 9 hrs by ELISA.
Data set [16] has as its system Mus musculus. Nature of the data set: Increase in human F9 nonsense R338X mutant antigen coagulant activity in C57B/6J mouse plasma at 28 mg/kg, sc administered daily for 2 days after 2 hrs. Type of data set: functional. The note with it: route subcutaneous.

SMILES strings stand for the structures. Activity calls are given as the source filed them. No cut-off for these calls is given here.

What is called half-life is the time in which the quantity being followed falls by half. Higher therefore signals slow decline. One may read the LD50 as the dose expected to kill half of the subjects tested.

On to `CN[C@@H]1[C@@H](O)[C@@H](O[C@@H]2[C@@H](O)[C@H](O[C@H]3O[C@H]([C@@H](C)O)[C@@H](O)[C@H](O)[C@H]3N)[C@@H](N)C[C@H]2N)OC[C@]1(C)O` [GENETICIN], for which the results for the half-life in data set [1] and in data set [13] were 80 h and 0.25 h, respectively. The Activity in data set [2] amounted to 4.98%; in [3] it was 8.03%; in data set [4] it was 22.8 ng; in [6], 6.18%; in data set [7], 13.57 ng; in [8] it was 5.79 ng. Also, the Activity is 8.75 ng in data set [9]; 43.9 ng in [10]; 4.55% in [11]; 2.28 ng in [12]; 27.28 ng in data set [14]; 6.94% in data set [16]. In addition, the LD50 in data set [5] came out at 1300 mg/kg. In addition, the result in data set [15] was Active.

The record behind these values is ChEMBL document CHEMBL1156518, “A mouse model for nonsense mutation bypass therapy shows a dramatic multiday response to geneticin” (Proc Natl Acad Sci U S A, 2007).
